# Measurements: patent publication US9896482B2, “Beta hairpin peptides having antiviral properties against Dengue virus” (CENTRO DE INGENIERÍA GENÉTICA Y BIOTECNOLOGÍA, priority 2014, dated 2018)
# pIC50: −log10 of the molar value. Read-outs that look alike come from different tables or passages of the source. Marks after values point to notes of the source that are not given here. Where a SMILES comes first, the peptide text is derived from it. Bridges are numbered along the chain shown (N, C = ends). [ ]: non-standard residue; d: D form.
# Assays:
# [1] = test system: DENV1; assay: In vivo protection assay, intracranial challenge, DENV1; parameters: species or system Balb/c mice; conditions: 30 μg peptide inoculated intracranially with 10 median lethal doses, 21 days
# Description: (§1) An experiment was set up to evaluate the in vivo antiviral activity of peptide PHB4 and compare it to that of peptide HDIII3CL. For this purpose, groups of 12 adult Balb/c mice (20 g average body weight) were anesthetized by ether inhalation and inoculated intracranially with 20 μL of viral preparations containing 10 times the median lethal dose of this model and the peptide to be evaluated. The animals recovered quickly and already appeared alert five minutes after the treatment, and were monitored afterwards for 21 days. The data were evaluated using the Kaplan-Meier logarithmic rank test.
# [2] = test system: DENV1 (NIBSC code West Pac 74); assay: Plaque reduction assay in Vero cells, DENV1; type: cell-based, Dengue virus; conditions: m.o.i. 0.001, read-out: Antiviral activity IC50 vs DENV1
# Description: The cells were grown in 24 well plates until the monolayer reached approximately 90% confluence, after which they were washed twice with MEM medium without Fetal Bovine Serum (FBS). Then, peptide dilutions were added and the cell-peptide mixtures were incubated typically for 1 hour at 37° C., followed by the addition of a DENV serotype 2 preparation (NIBSC code S16803) at a multiplicity of infection (m.o.i.) of 0.001. The cells were then incubated for 1 hour at 37° C., and once the period of incubation with the viral inoculum concluded, were washed again to remove unbound virions and incubated for 5 days at 37° C. in high density medium (MEM supplemented with non-essential amino acids, 1% FBS, 1% carboxymethylcellulose) in order to let viral plaques form. Afterwards, the cells were stained with 0.1% Naphtol Blue Black in 0.15 M sodium acetate. Two replicates per experimental point were used in each assay, and three independent determinations were performed for each sample.
# Next, it was decided to compare the antiviral activity of peptides PHB4 and HDIII3CL against all four DENV serotypes, with the objective of comparing their respective IC50 values. […]
# [3] = test system: DENV2 strain S16803
# Description: The antiviral activity of peptide PHB4 was evaluated after treatments facilitating its aggregation or in the presence of different agents that modulate aggregation, with the purpose of examining their effect on the inhibitory activity of this peptide for the infection of Huh7.5 cells with DENV2 strain S16803. Huh7.5, a human hepatoma-derived cell line, was selected not only because it is permissive for DENV2, but because of its relevance as an experimental system from the viewpoint of DENV pathogenesis (Lin Y L, et al. (2000) J Med Virol.; 60(4):425-31).
# Antiviral activity was evaluated in virus yield assays, in which 80-90% confluent Huh7.5 monolayers were washed twice with non-supplemented DMEM and then infected at a m.o.i of 0.01 for 2 h at 37° C. and 5% CO2 in the presence of the different peptide preparations, after which the viral inoculum was removed by washing with non-supplemented DMEM, and the cells were grown in DMEM supplemented with 2% FBS. Cell supernatants were collected at 24 h p.i., and virus yields were determined by titrating the supernatant in a plaque formation assay (Morens D. M., et al. (1985). N. J. Clin. Microbiology; 22: 250-254).
# Therefore, a first series of assays was set up in which, starting from a 20 μM solution of the peptide in water, dilutions were prepared in MEM spanning the 10-0.01 μM concentration range, which were then incubated in parallel at 10° C. and 37° C. for 2 hours and then used in a viral inhibition assay. Non-incubated peptide dilutions (that is, prepared right before the viral inhibition assay) were used as controls.
# A second experiment was designed to determine the influence of aggregation time on the antiviral potency of peptide PHB4 (FIG. 18). […] This incubation with HSA was performed in parallel at either 10° C. or 37° C.
# [4] = target: T1, sLRP1-CIV (Homo sapiens, UniProt Q07954); assay: Biacore (SPR) binding to immobilized sLRP1-CIV; conditions: peptides at 20 μM
# T1 construct: purchased R&D Systems, USA
# Description: The interaction of the beta hairpin peptides with soluble fragments of the LRP1 receptor was studied by Surface Plasmon Resonance (SPR), using a Biacore X unit. In this technique, one of the interaction partners to be studied is immobilized on the surface of a chip, and the other interaction partner is dissolved in a solution that runs through the measurement cell on top of the interaction surface, under conditions of controlled flow. The association and dissociation of interacting partners is measured in resonance units (RU) and plotted, as a function of time, on charts known as ‘sensorgrams’. SPR, therefore, enables the experimenter to obtain detailed information about the interaction without having to label either interaction partner.
# In this example, one channel of a CM5 chip (GE Healthcare, USA) was used to immobilize protein sLRP1-CIV on its surface at high density (see Table 6) and recombinant Human Serum Albumin (rHSA, Sigma-Aldrich, USA) was immobilized on the other channel.
# Although it was decided to immobilize sLRP1-CIV at high density because these conditions make easier the detection of any potential interactions with compounds whose molecular weight is lower than that of average proteins (such as the peptides this experiment is intended to study), it must be stressed that in high-density surfaces, mass transfer limitations and the possibility of multivalent binding make difficult the accurate determination of kinetic constants. Therefore, and in order to characterize in greater detail the sLRP1-CIV binding surface, different RAP dilutions (0.6-20 μM) were loaded, and RU were registered under conditions of interaction equilibria (250 sec, see FIG. 13B). […] The data also indicate that immobilized sLRP1-CIV faithfully reproduces the previously reported characteristics of the LRP1-RAP interaction.
# The binding of beta hairpin peptides to sLRP1-CIV was studied by loading 20 μM dilutions in running buffer of the different peptide variants onto the sLRP1-CIV chip characterized above. The high strength of the resulting signals is consistent with the binding of aggregated, rather than monomeric forms of the peptides. Therefore, the observed variations between different peptides may reflect either differences in the affinity of unitary peptide interactions or differences in aggregation numbers and/or geometries that lead to variations in the number of peptide units able to simultaneously engage immobilized sLRP1-CIV molecules in a multivalent manner. […] The difference between peptides HDIII3CL2 and HDIII3CL is that the former has an additional C-terminal lysine and has, therefore, a stronger cationic character, which may facilitate additional electrostatic interactions with the negatively charged LRP1 receptor.
# [5] = test system: DENV4; assay: In vivo protection assay, intracranial challenge, DENV4; parameters: species or system Balb/c mice; conditions: 30 μg peptide inoculated intracranially with 10 median lethal doses, 21 days
# Description: as §1
smiles,measurement,setting,value
CC[C@H](C)[C@@H]1NC(=O)[C@H](Cc2ccccc2)NC(=O)[C@H](Cc2c[nH]c3ccccc23)NC(=O)[C@H](CC(N)=O)NC(=O)[C@H](C(C)C)NC(=O)[C@H](CCCCN)NC(=O)[C@H](Cc2c[nH]c3ccccc23)NC(=O)[C@H](CCCCN)NC(=O)[C@H]2CCCN2C(=O)[C@H](CCCNC(=N)N)NC(=O)[C@H]([C@@H](C)O)NC(=O)[C@H](Cc2c[nH]c3ccccc23)NC(=O)[C@H](Cc2ccc(O)cc2)NC(=O)[C@H](C(C)C)NC(=O)[C@H](CCC(=O)O)NC(=O)[C@H]([C@@H](C)CC)NC(=O)[C@@H](N)CSSC[C@@H](C(=O)N[C@@H](CCCCN)C(=O)N[C@@H](CCCCN)C(=O)N[C@@H](CCCCN)C(N)=O)NC1=O [PHB4] (H-CIEVYWTR[dP]KWKVNWFICKKK-NH2; disulfide 1-18; N-terminus assumed),Protection (%) DENV1,[1],100*** %
same,pIC50,[2],8.70
same,Variation in potency with incubation temperature,[3]; 10° C. vs 37° C. pre-incubation,24 fold
same,IC100,"[3]; Huh7.5 cells, non-incubated peptide in MEM",10 µM
same,pIC50,"[3]; read-out: IC50, 2 hrs-10° C., Huh7.5 cells, peptide pre-incubated in MEM 2 h at 10° C.",7.43
same,pIC50,"[3]; read-out: IC50, 2 hrs-37° C., Huh7.5 cells, peptide pre-incubated in MEM 2 h at 37° C.",6.05
same,pIC50,"[3]; read-out: IC50, no incubation, Huh7.5 cells, peptide dissolved in MEM, non-incubated",6.80
same,"Binding to sLRP1-CIV by SPR, in words",[4],strongest binding
same,Protection (%) DENV4,[5],100*** %
